Measured values: publication PMC5520944 (Cell Death & Disease, 2017)
Structures can show the parent of a compound that is named as a salt.

Legend:
Molm13 = assay: cells; set-up: species or system Jurkat FADD-/-, HT-29, MV4-11 or Molm13; protection from induced necroptosis, cell death by PI staining and flow cytometry; details: Homo sapiens, MOLM-13; BV6 + zVAD; inhibition of induced cell death
Procedure: Figure 2 Sorafenib inhibits TNF-induced RIPK1-dependent cell death in both murine and human cell lines and rescues AML cells from Smac mimetic-induced necroptosis. […] (c,d) HT-29 and Jurkat FADD−/− cells were pretreated for 1 h with DMSO, Nec-1 or Sorafenib (concentrations as indicated) and stimulated for 6 h with 30 ng/ml hTNF, 1 μM BV6 and 30 μM zVAD (HT-29) or stimulated for 10 h with 100 ng/ml hTNF (Jurkat FADD−/−). (a-d) Data were normalized to DMSO-treated control cells and represent the mean value±S.E.M. of three independent experiments. Toxic concentrations were removed from the analysis. L929sAhFas and MEF cells were stained with Hoechst and PI and percentage PI-positive nuclei was determined using high-content image analysis (BD pathway Bioimager). For HT-29 and Jurkat FADD−/− cells, cell death was determined by PI staining and flow cytometry. […] Cell death in AML cells was determined by PI staining and flow cytometry. Mean and S.D. of three independent experiments performed in triplicate are shown Supplementary materials and methods Immunoblotting. After treatments, cells were washed twice with PBS and lysed with Laemmli buffer (2x) directly or with NP-40 lysis buffer (150 mM NaCl, 1% NP-40, 10% glycerol, 10 mM Tris-HCl pH 8) supplemented with EDTA-free protease inhibitor cocktail tablets (Roche Diagnostics, Basel, Switzerland, #11873580001) and phosphatase inhibitor cocktail tablets (Roche Diagnostics, #04906837001). After lysis with NP-40 lysis buffer, lysates were kept 10 minutes on ice and centrifugated in a microcentrifuge (10 min, 13.000 rpm, 4°C). Supernatant was used for SDS-PAGE and immunoblotting. FACS analysis. FACS analysis was used to measure dying HT-29, Jurkat FADD-/- and AML cells. Treated HT-29 cells were harvested, washed with PBS and incubated with Annexin V binding buffer (BD Biosciences, 556454) containing 7-AAD and Annexin V-FITC for 15 min according to the manufacturer’s protocol. FACSCalibur^TM Flow Cytometer (BD Biosciences) and CellQuest Pro software were used to perform experiments and analyze data respectively.

L929sAhFas = assay: cells; set-up: high-content necroptosis screen, percentage PI-positive nuclei as percent of DMSO plus stimulus control; details: mTNF-induced cell death, validation screen; read-out: Validation screen IC50 (µM) (TNF)
Excerpt: To identify novel inhibitors or regulators of necroptosis, 500 small compounds from libraries targeting autophagy, kinases, phosphatases, proteases and redox balance were screened for their ability to block TNF-induced necroptosis in murine L929sAhFas cells. Three conditions were used to induce necroptosis in L929 cells: TNF alone, TNF+TAK1 inhibitor (TAK1i) and TNF+zVAD-fmk, a pan-caspase inhibitor. Inhibition of TAK1 or caspases sensitizes to necroptosis.[13], [32] Necroptosis, measured as the percentage of PI-positive nuclei normalized to the plate-specific DMSO control, was determined for each compound (Supplementary Figure 1A). Z’ values for the TNF- and TNF+TAK1i-induced cell death assay were 0.498 and 0.919, respectively (Supplementary Figures 2A and B), indicating good assay performance. Sorafenib was identified as an effective inhibitor of both TNF- and TNF+TAK1i-induced necroptosis (Figure 1a). […] In an independent screening with 437 FDA-approved drugs and TNF+zVAD-fmk as necroptosis trigger in L929 cells (Supplementary Figure 1B), Sorafenib was also shown to be a potent inhibitor (Figure 1b). […] After compound treatment, L929sAhFas (a) or L929 (b) cells were stimulated with mTNF (T), mTNF+Tak1i (TiT) or mTNF+zVAD (zVT) (Supplementary Figure 1A and B). (a) Cell death percentage (% PI-positive nuclei) or cell loss was calculated as percent of control (DMSO+stimulus). Green points marked by the green dotted line represent a selection of kinase inhibitors from the screening on L929sAhFas cells (Supplementary Table 1), that are only slightly protective in the TNF-stimulated condition. (b) Cell loss (luminescence-based readout for ATP) was calculated as percent of control (DMSO+stimulus). […] In stimulated conditions, % PI-positive nuclei was determined as % of DMSO control. Data represent mean values±S.E.M. of two independent experiments. Cells were stained with Hoechst and PI and percentage PI-positive nuclei was determined using high-content image analysis (BD pathway Bioimager). (d) L929sAhFas cells were treated with Sorafenib (concentration as indicated) for 24 h. Then, stimulus was removed, 50 cells/condition seeded and colonies counted with crystal violet staining after 10 days incubation. Quantification was performed using ImageJ. n=2, a representative experiment is shown Legends supplementary figures Supplementary Figure S1. Schemes of workflow screening assays in L929 cell lines. (A) Scheme of the workflow of a high-content screening assay on L929sAhFas cells using mTNF (T) and mTNF+Tak1i ((5Z)-7-Oxozeaenol) (TiT) to induce necroptotic cell death. Nec-1 and zVAD-fmk were used as protective and sensitizing benchmarks, respectively, on all plates. (B) Scheme of the workflow of a CellTiter-Glo luminescent cell viability screening assay on L929 cells using mTNF+zVAD (zVT) to induce necroptotic cell death. Supplementary Figure S2. Z’ calculation for cell death screening assays in L929 cells. (A) Z’ calculation for cell death screening assay (Fig. 1A) in mTNF-stimulated L929sAhFas cells. (B) Z’ calculation for cell death screening assay (Fig. 1A) in L929sAhFas cells stimulated with mTNF + Taki.

CNC(=O)c1cc(Oc2ccc(NC(=O)Nc3ccc(Cl)c(C(F)(F)F)c3)cc2)ccn1 [Sorafenib tosylate]
IC50 (Molm13): ≤ 0.03 µM
IC50 (L929sAhFas): 3.25 µM
